The text below walks through data of ChEMBL document CHEMBL1909046, “DrugMatrix in vitro pharmacology data”.

Sequence of C-C chemokine receptor type 5 (P51681 whole entry): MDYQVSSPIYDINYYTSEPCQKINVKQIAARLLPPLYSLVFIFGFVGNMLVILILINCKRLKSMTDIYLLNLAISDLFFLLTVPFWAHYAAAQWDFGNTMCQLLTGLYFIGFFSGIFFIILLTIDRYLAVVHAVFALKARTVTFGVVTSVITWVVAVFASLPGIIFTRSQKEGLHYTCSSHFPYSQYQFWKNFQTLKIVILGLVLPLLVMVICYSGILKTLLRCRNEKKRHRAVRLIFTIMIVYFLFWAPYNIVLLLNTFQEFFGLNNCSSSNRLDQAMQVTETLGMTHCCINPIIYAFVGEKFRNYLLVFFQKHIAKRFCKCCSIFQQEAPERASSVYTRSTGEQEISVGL
Sequence of Mitogen-activated protein kinase 3 (P27361 whole entry): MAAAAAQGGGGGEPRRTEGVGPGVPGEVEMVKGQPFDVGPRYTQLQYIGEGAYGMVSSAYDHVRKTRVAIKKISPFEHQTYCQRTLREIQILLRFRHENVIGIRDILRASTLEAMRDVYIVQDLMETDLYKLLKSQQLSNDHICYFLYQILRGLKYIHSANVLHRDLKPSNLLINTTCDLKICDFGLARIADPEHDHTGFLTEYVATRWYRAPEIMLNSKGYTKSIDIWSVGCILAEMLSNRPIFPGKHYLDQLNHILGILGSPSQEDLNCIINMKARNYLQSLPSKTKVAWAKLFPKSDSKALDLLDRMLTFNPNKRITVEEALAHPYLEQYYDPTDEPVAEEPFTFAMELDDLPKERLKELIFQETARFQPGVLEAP

In one test the target is Adenosine receptor A2a (Homo sapiens, UniProt P29274). As to the kind of experiment: DRUGMATRIX: Adenosine A2A radioligand binding (ligand: […]). The test is classed as cell membranes, HEK293, Membrane. To be noted: hek293; Not Active = under 50% inhibition at 10 µM.
Sequence of Adenosine receptor A2a (P29274 whole entry): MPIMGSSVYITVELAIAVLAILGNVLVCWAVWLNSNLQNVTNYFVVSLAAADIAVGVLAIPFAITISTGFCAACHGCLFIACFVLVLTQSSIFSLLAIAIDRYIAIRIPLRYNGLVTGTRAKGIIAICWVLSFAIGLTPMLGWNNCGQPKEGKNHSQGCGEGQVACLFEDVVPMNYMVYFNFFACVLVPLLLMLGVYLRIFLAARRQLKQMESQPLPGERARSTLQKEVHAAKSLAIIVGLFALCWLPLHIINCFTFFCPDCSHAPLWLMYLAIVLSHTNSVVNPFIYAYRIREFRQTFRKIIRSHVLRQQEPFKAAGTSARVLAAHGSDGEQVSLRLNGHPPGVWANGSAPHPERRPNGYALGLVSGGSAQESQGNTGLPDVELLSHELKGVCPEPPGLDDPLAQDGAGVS
In the case of `Nc1nc(=O)[nH]cc1F` [FLUCYTOSINE], the IC50 result is “Not Active”.
On the same count and under the same terms, then `N#C[C@H](O[C@@H]1O[C@H](CO[C@@H]2O[C@H](CO)[C@@H](O)[C@H](O)[C@H]2O)[C@@H](O)[C@H](O)[C@H]1O)c1ccccc1` [AMYGDALIN], with “Not Active”.
Take `CNC(=O)Oc1ccc2c(c1)[C@]1(C)CCN(C)[C@@H]1N2C` [PHYSOSTIGMINE]: the IC50 entry was “Not Active”.

Test system in the next test: not listed separately
As to the kind of experiment: DRUGMATRIX: Potassium Channel [KATP] radioligand binding (ligand: [3H] Glyburide). The test is classed as cell membranes, Membrane. The settings on record: hit-t15; Not Active = under 50% inhibition at 10 µM.
As to `Nc1nc(=O)[nH]cc1F` [FLUCYTOSINE], the IC50 entry was “Not Active” and the Ki entry is given as “Not Active”.
Consider `N#C[C@H](O[C@@H]1O[C@H](CO[C@@H]2O[C@H](CO)[C@@H](O)[C@H](O)[C@H]2O)[C@@H](O)[C@H](O)[C@H]1O)c1ccccc1` [AMYGDALIN], for which the IC50 entry is “Not Active” and the Ki result is recorded as “Not Active”.
On to `CNC(=O)Oc1ccc2c(c1)[C@]1(C)CCN(C)[C@@H]1N2C` [PHYSOSTIGMINE], for which the IC50 result was “Not Active” and the Ki entry is “Not Active”.

For the next test, the target named is T1, Substance-K receptor (Homo sapiens, UniProt P21452). Further: in other assays of this panel Not Active means under 50% inhibition at 10 µM.
T1 sequence (P21452 whole entry): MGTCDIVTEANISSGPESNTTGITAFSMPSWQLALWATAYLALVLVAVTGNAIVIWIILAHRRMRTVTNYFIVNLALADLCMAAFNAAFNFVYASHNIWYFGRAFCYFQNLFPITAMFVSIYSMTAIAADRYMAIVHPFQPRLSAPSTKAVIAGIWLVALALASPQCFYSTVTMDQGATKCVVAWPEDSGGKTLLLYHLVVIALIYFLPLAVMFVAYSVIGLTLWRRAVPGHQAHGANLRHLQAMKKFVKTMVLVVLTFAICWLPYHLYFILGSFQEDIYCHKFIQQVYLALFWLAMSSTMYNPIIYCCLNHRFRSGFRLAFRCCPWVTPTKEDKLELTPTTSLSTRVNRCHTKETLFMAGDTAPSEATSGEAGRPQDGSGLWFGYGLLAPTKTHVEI
Assay: not given
The test is classed as cell membranes, CHO, Membrane. To be noted: cho.
On to `Nc1nc(=O)[nH]cc1F` [FLUCYTOSINE], for which the IC50 result is “Not Active”.
As for `N#C[C@H](O[C@@H]1O[C@H](CO[C@@H]2O[C@H](CO)[C@@H](O)[C@H](O)[C@H]2O)[C@@H](O)[C@H](O)[C@H]1O)c1ccccc1` [AMYGDALIN], the IC50 result was “Not Active”.
Turning to `CNC(=O)Oc1ccc2c(c1)[C@]1(C)CCN(C)[C@@H]1N2C` [PHYSOSTIGMINE], the IC50 result is on record as “Not Active”.

Another test has as its target T2, Angiotensin-converting enzyme (Oryctolagus cuniculus, UniProt P12822).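 Further: enzymatic inhibition of angiotensin-converting enzyme measured with FAPGG as the substrate; in other assays of this panel Not Active means under 50% inhibition at 10 µM.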
T2 sequence (P12822 whole entry): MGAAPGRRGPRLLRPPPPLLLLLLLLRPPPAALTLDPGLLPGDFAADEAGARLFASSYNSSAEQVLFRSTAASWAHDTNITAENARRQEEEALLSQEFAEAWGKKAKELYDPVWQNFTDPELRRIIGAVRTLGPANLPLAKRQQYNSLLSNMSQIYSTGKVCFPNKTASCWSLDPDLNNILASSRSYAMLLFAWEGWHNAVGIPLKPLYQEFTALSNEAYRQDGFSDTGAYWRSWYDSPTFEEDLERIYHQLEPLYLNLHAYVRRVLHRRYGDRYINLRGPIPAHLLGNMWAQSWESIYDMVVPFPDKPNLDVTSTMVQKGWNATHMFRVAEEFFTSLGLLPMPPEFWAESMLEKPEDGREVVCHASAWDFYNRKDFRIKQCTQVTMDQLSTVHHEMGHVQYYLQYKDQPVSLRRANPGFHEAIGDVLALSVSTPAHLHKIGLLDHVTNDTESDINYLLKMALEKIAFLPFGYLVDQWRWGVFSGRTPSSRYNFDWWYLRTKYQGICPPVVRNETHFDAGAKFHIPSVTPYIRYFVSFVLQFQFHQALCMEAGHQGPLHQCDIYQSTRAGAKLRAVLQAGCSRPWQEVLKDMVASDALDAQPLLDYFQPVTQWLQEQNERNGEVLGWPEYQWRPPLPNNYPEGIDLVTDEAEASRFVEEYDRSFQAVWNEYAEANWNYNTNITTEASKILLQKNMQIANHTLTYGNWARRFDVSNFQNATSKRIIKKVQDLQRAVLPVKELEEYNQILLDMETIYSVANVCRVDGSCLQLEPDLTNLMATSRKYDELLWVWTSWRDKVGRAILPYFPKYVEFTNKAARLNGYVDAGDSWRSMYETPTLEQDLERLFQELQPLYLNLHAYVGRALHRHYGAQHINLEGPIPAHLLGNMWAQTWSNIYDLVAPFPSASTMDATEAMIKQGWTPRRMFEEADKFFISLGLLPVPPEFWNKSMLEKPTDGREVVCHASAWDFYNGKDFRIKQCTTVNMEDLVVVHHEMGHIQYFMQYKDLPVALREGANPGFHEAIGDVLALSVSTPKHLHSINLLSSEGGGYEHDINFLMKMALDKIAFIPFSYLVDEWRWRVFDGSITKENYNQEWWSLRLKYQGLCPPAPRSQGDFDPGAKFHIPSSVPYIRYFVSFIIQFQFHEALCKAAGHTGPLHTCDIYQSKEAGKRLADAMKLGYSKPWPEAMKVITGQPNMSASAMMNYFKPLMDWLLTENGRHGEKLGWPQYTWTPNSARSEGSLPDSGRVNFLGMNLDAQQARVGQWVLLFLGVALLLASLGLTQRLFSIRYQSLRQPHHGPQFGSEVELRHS
The experiment in a line: biochemical. The format is tissue-based, Lung.
Settings: not given
For the compound `Nc1nc(=O)[nH]cc1F` [FLUCYTOSINE], the IC50 entry is on record as “Not Active”.
For the compound `N#C[C@H](O[C@@H]1O[C@H](CO[C@@H]2O[C@H](CO)[C@@H](O)[C@H](O)[C@H]2O)[C@@H](O)[C@H](O)[C@H]1O)c1ccccc1` [AMYGDALIN], the IC50 entry is reported as “Not Active”.
Take `CNC(=O)Oc1ccc2c(c1)[C@]1(C)CCN(C)[C@@H]1N2C` [PHYSOSTIGMINE]: the IC50 result is reported as “Not Active”.

Test system in a further test: not listed separately
The experiment in a line: DRUGMATRIX: Interleukin IL-1 radioligand binding (ligand: [125I] interleukin 1beta). The format is cell membranes, Membrane. To be noted: nih3t3; Not Active = under 50% inhibition at 10 µM.
Consider `Nc1nc(=O)[nH]cc1F` [FLUCYTOSINE], for which the IC50 result is “Not Active” and the Ki entry was “Not Active”.
Consider `N#C[C@H](O[C@@H]1O[C@H](CO[C@@H]2O[C@H](CO)[C@@H](O)[C@H](O)[C@H]2O)[C@@H](O)[C@H](O)[C@H]1O)c1ccccc1` [AMYGDALIN], for which the IC50 entry is given as “Not Active” and the Ki result is “Not Active”.
Turning to `CNC(=O)Oc1ccc2c(c1)[C@]1(C)CCN(C)[C@@H]1N2C` [PHYSOSTIGMINE], the IC50 result was “Not Active” and the Ki result was “Not Active”.

Test system in a further test: not listed separately
The experiment in a line: DRUGMATRIX: GABAA, Muscimol, Central radioligand binding (ligand: [3H] Muscimol). The format is cell membranes, Rattus norvegicus, Wistar, Brain, Membrane. The settings on record: Not Active = under 50% inhibition at 10 µM.
For `Nc1nc(=O)[nH]cc1F` [FLUCYTOSINE], the IC50 entry was “Not Active” and the Ki entry is “Not Active”.
As to `N#C[C@H](O[C@@H]1O[C@H](CO[C@@H]2O[C@H](CO)[C@@H](O)[C@H](O)[C@H]2O)[C@@H](O)[C@H](O)[C@H]1O)c1ccccc1` [AMYGDALIN], the IC50 result was “Not Active” and the Ki result is recorded as “Not Active”.
For `CNC(=O)Oc1ccc2c(c1)[C@]1(C)CCN(C)[C@@H]1N2C` [PHYSOSTIGMINE], the IC50 result is recorded as “Not Active” and the Ki result is given as “Not Active”.

In the next test the target is Substance-P receptor (Homo sapiens, UniProt P25103). Further: in other assays of this panel Not Active means under 50% inhibition at 10 µM.
Sequence of Substance-P receptor (P25103 whole entry): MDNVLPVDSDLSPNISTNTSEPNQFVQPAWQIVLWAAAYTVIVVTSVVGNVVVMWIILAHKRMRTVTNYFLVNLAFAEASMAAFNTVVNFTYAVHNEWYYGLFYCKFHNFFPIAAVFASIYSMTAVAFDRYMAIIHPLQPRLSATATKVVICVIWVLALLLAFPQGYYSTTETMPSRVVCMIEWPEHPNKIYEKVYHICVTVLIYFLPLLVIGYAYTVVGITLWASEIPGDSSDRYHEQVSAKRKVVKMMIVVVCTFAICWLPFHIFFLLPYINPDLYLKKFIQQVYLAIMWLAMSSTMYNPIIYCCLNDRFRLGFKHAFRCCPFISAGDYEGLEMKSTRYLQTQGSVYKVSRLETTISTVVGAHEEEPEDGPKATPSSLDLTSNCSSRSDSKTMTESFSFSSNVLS
Assay: not given
To be noted: cho. The test is classed as cell membranes, CHO, Membrane.
Turning to `Nc1nc(=O)[nH]cc1F` [FLUCYTOSINE], the IC50 result is “Not Active”.
In the case of `N#C[C@H](O[C@@H]1O[C@H](CO[C@@H]2O[C@H](CO)[C@@H](O)[C@H](O)[C@H]2O)[C@@H](O)[C@H](O)[C@H]1O)c1ccccc1` [AMYGDALIN], the IC50 entry is on record as “Not Active”.
On the same count and under the same terms, then `CNC(=O)Oc1ccc2c(c1)[C@]1(C)CCN(C)[C@@H]1N2C` [PHYSOSTIGMINE], with “Not Active”.

A further test addresses C-C chemokine receptor type 5 (Homo sapiens, UniProt P51681).
Assay: not given
The format is cell membranes, Membrane. The settings on record: hek293.
Take `Nc1nc(=O)[nH]cc1F` [FLUCYTOSINE]: the IC50 entry is given as “Not Active”.
Consider `N#C[C@H](O[C@@H]1O[C@H](CO[C@@H]2O[C@H](CO)[C@@H](O)[C@H](O)[C@H]2O)[C@@H](O)[C@H](O)[C@H]1O)c1ccccc1` [AMYGDALIN], for which the IC50 entry is “Not Active”.
For `CNC(=O)Oc1ccc2c(c1)[C@]1(C)CCN(C)[C@@H]1N2C` [PHYSOSTIGMINE], the IC50 result is reported as “Not Active”.

In another test the target is T3, Calcitonin receptor (Homo sapiens, UniProt P30988). Further: in other assays of this panel Not Active means under 50% inhibition at 10 µM.
T3 sequence (P30988 whole entry): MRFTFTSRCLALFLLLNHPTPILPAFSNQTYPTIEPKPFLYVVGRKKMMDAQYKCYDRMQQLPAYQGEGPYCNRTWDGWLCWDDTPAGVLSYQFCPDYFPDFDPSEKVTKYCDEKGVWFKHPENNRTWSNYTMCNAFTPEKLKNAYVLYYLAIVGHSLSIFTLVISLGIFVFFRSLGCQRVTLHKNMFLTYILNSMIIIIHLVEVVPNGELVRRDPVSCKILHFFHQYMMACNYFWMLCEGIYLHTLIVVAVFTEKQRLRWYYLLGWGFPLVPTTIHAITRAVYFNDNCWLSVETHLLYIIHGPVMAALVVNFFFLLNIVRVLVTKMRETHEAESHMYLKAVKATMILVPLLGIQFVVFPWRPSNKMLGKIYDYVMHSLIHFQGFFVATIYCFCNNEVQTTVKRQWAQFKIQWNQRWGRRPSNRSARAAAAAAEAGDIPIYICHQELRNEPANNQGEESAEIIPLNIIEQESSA
Assay: not given
The test is classed as cell membranes, Membrane. The settings on record: t47d.
Turning to `Nc1nc(=O)[nH]cc1F` [FLUCYTOSINE], the IC50 result is recorded as “Not Active”.
In the case of `N#C[C@H](O[C@@H]1O[C@H](CO[C@@H]2O[C@H](CO)[C@@H](O)[C@H](O)[C@H]2O)[C@@H](O)[C@H](O)[C@H]1O)c1ccccc1` [AMYGDALIN], the IC50 entry is “Not Active”.
Turning to `CNC(=O)Oc1ccc2c(c1)[C@]1(C)CCN(C)[C@@H]1N2C` [PHYSOSTIGMINE], the IC50 result is reported as “Not Active”.

Another test addresses Glycine receptor (Rattus norvegicus, UniProt P22771+P24524+P07727+P20781).
Assay: not given
The test is classed as cell membranes, Wistar, Spinal cord, Membrane.
Settings: not given
In the case of `Nc1nc(=O)[nH]cc1F` [FLUCYTOSINE], the IC50 entry is on record as “Not Active”.
Consider `N#C[C@H](O[C@@H]1O[C@H](CO[C@@H]2O[C@H](CO)[C@@H](O)[C@H](O)[C@H]2O)[C@@H](O)[C@H](O)[C@H]1O)c1ccccc1` [AMYGDALIN], for which the IC50 result is on record as “Not Active”.
On to `CNC(=O)Oc1ccc2c(c1)[C@]1(C)CCN(C)[C@@H]1N2C` [PHYSOSTIGMINE], for which the IC50 entry is given as “Not Active”.

Test system in another test: not listed separately
As to the kind of experiment: DRUGMATRIX: Nicotinic Acetylcholine radioligand binding (ligand: [125I] Epibatidine). The test is classed as cell membranes, Membrane. To be noted: imr-32; Not Active = under 50% inhibition at 10 µM.
As to `Nc1nc(=O)[nH]cc1F` [FLUCYTOSINE], the IC50 entry is listed as “Not Active” and the Ki entry is given as “Not Active”.
In the case of `N#C[C@H](O[C@@H]1O[C@H](CO[C@@H]2O[C@H](CO)[C@@H](O)[C@H](O)[C@H]2O)[C@@H](O)[C@H](O)[C@H]1O)c1ccccc1` [AMYGDALIN], the IC50 result is listed as “Not Active” and the Ki result is on record as “Not Active”.
`CNC(=O)Oc1ccc2c(c1)[C@]1(C)CCN(C)[C@@H]1N2C` [PHYSOSTIGMINE]: the IC50 entry is “Not Active” and the Ki result was “Not Active”.

The next test concerns the target Mitogen-activated protein kinase 3 (Homo sapiens, UniProt P27361). As to the kind of experiment: DRUGMATRIX: Protein Serine/Threonine Kinase, ERK1 enzyme inhibition (substrate: Myelin Basic Protein). More on the design: species or system Escherichia coli. The settings on record: Not Active = under 50% inhibition at 10 µM.
Consider `Nc1nc(=O)[nH]cc1F` [FLUCYTOSINE], for which the IC50 entry is given as “Not Active”.
Still for that read-out and setting: next, `N#C[C@H](O[C@@H]1O[C@H](CO[C@@H]2O[C@H](CO)[C@@H](O)[C@H](O)[C@H]2O)[C@@H](O)[C@H](O)[C@H]1O)c1ccccc1` [AMYGDALIN]: “Not Active”; `CNC(=O)Oc1ccc2c(c1)[C@]1(C)CCN(C)[C@@H]1N2C` [PHYSOSTIGMINE]: “Not Active”.
